Reference: ChEMBL document CHEMBL3612057, “Discovery of indolizines containing triazine moiety as new leads for the development of antitumoral agents targeting mitotic events” (2015)
The source made the active and inactive calls. The rule behind the calls is not given here.

What was measured:
[1] = system: CCRF-CEM; assay: Cytotoxicity against human CCRF-CEM cells assessed as growth inhibition at 10 uM after 24 hrs by SRB assay; format: functional
[2] = system: HL-60(TB); assay: Cytotoxicity against human HL-60(TB) cells assessed as growth inhibition at 10 uM after 24 hrs by SRB assay; format: functional
[3] = system: K562; assay: Cytotoxicity against human K562 cells assessed as growth inhibition at 10 uM after 24 hrs by SRB assay; format: functional
[4] = system: RPMI-8226; assay: Cytotoxicity against human RPMI8226 cells assessed as growth inhibition at 10 uM after 24 hrs by SRB assay; format: functional
[5] = system: SR; assay: Cytotoxicity against human SR cells assessed as growth inhibition at 10 uM after 24 hrs by SRB assay; format: functional
[6] = system: A549; assay: Cytotoxicity against human A549 cells assessed as growth inhibition at 10 uM after 24 hrs by SRB assay; format: functional
[7] = system: HOP-62; assay: Cytotoxicity against human HOP62 cells assessed as growth inhibition at 10 uM after 24 hrs by SRB assay; format: functional
[8] = system: HOP-92; assay: Cytotoxicity against human HOP92 cells assessed as growth inhibition at 10 uM after 24 hrs by SRB assay; format: functional
[9] = system: NCI-H226; assay: Cytotoxicity against human NCI-H226 cells assessed as growth inhibition at 10 uM after 24 hrs by SRB assay; format: functional
[10] = system: NCI-H460; assay: Cytotoxicity against human NCI-H460 cells assessed as growth inhibition at 10 uM after 24 hrs by SRB assay; format: functional
[11] = system: NCI-H522; assay: Cytotoxicity against human NCI-H522 cells assessed as growth inhibition at 10 uM after 24 hrs by SRB assay; format: functional
[12] = system: HCT-116; assay: Cytotoxicity against human HCT116 cells assessed as growth inhibition at 10 uM after 24 hrs by SRB assay; format: functional
[13] = system: SF-295; assay: Cytotoxicity against human SF295 cells assessed as growth inhibition at 10 uM after 24 hrs by SRB assay; format: functional
[14] = system: SF-539; assay: Cytotoxicity against human SF539 cells assessed as growth inhibition at 10 uM after 24 hrs by SRB assay; format: functional
[15] = system: SNB-75; assay: Cytotoxicity against human SNB75 cells assessed as growth inhibition at 10 uM after 24 hrs by SRB assay; format: functional
[16] = system: U-251; assay: Cytotoxicity against human U251 cells assessed as growth inhibition at 10 uM after 24 hrs by SRB assay; format: functional
[17] = system: Malme-3M; assay: Cytotoxicity against human MALME-3M cells assessed as growth inhibition at 10 uM after 24 hrs by SRB assay; format: functional
[18] = system: MDA-MB-435; assay: Cytotoxicity against human MDA-MB-435 cells assessed as growth inhibition at 10 uM after 24 hrs by SRB assay; format: functional
[19] = system: SK-MEL-28; assay: Cytotoxicity against human SK-MEL-28 cells assessed as growth inhibition at 10 uM after 24 hrs by SRB assay; format: functional
[20] = system: SK-MEL-5; assay: Cytotoxicity against human SK-MEL-5 cells assessed as growth inhibition at 10 uM after 24 hrs by SRB assay; format: functional
[21] = system: UACC-257; assay: Cytotoxicity against human UACC257 cells assessed as growth inhibition at 10 uM after 24 hrs by SRB assay; format: functional; conditions: UACC-257, 24 h, read-out: GI
[22] = system: UACC-62; assay: Cytotoxicity against human UACC62 cells assessed as growth inhibition at 10 uM after 24 hrs by SRB assay; format: functional
[23] = system: OVCAR-3; assay: Cytotoxicity against human OVCAR3 cells assessed as growth inhibition at 10 uM after 24 hrs by SRB assay; format: functional
[24] = system: OVCAR-4; assay: Cytotoxicity against human OVCAR4 cells assessed as growth inhibition at 10 uM after 24 hrs by SRB assay; format: functional
[25] = system: OVCAR-8; assay: Cytotoxicity against human OVCAR8 cells assessed as growth inhibition at 10 uM after 24 hrs by SRB assay; format: functional
[26] = system: NCI/ADR-RES; assay: Cytotoxicity against human NCI/ADR-RES cells assessed as growth inhibition at 10 uM after 24 hrs by SRB assay; format: functional
[27] = system: SK-OV-3; assay: Cytotoxicity against human SKOV3 cells assessed as growth inhibition at 10 uM after 24 hrs by SRB assay; format: functional
[28] = system: 786-0; assay: Cytotoxicity against human 786-0 cells assessed as growth inhibition at 10 uM after 24 hrs by SRB assay; format: functional
[29] = system: ACHN; assay: Cytotoxicity against human ACHN cells assessed as growth inhibition at 10 uM after 24 hrs by SRB assay; format: functional
[30] = system: CAKI-1; assay: Cytotoxicity against human CAKI-1 cells assessed as growth inhibition at 10 uM after 24 hrs by SRB assay; format: functional
[31] = system: RXF 393; assay: Cytotoxicity against human RXF393 cells assessed as growth inhibition at 10 uM after 24 hrs by SRB assay; format: functional; conditions: RXF 393, 24 h, read-out: GI
[32] = system: TK-10; assay: Cytotoxicity against human TK10 cells assessed as growth inhibition at 10 uM after 24 hrs by SRB assay; format: functional
[33] = system: PC-3; assay: Cytotoxicity against human PC3 cells assessed as growth inhibition at 10 uM after 24 hrs by SRB assay; format: functional
[34] = system: MCF7; assay: Cytotoxicity against human MCF7 cells assessed as growth inhibition at 10 uM after 24 hrs by SRB assay; format: functional
[35] = system: MDA-MB-231; assay: Cytotoxicity against human MDA-MB-231 cells assessed as growth inhibition at 10 uM after 24 hrs by SRB assay; format: functional
[36] = system: Hs-578T; assay: Cytotoxicity against human Hs578T cells assessed as growth inhibition at 10 uM after 24 hrs by SRB assay; format: functional
[37] = system: T47D; assay: Cytotoxicity against human T47D cells assessed as growth inhibition at 10 uM after 24 hrs by SRB assay; format: functional
[38] = organism: Ovis aries; assay: Inhibition of sheep tubulin polymerization at 100 uM by fluorescence assay

Row | SMILES | growth inhibition (GI) [1] | growth inhibition (GI) [2] | growth inhibition (GI) [3] | growth inhibition (GI) [4] | growth inhibition (GI) [5] | growth inhibition (GI) [6] | growth inhibition (GI) [7] | growth inhibition (GI) [8] | growth inhibition (GI) [9] | growth inhibition (GI) [10] | growth inhibition (GI) [11] | growth inhibition (GI) [12] | growth inhibition (GI) [14] | growth inhibition (GI) [16] | growth inhibition (GI) [18] | growth inhibition (GI) [20] | inhibition of growth at 10 µM [21] | growth inhibition (GI) [22] | growth inhibition (GI) [23] | growth inhibition (GI) [25] | also measured
1 | COc1nc(OC)nc(-c2cc(C(=O)c3ccc(Br)cc3)n3ccc(C#N)cc23)n1 | inactive | inactive | inactive | inactive | inactive | inactive | inactive | inactive | inactive | inactive | inactive | inactive | inactive | inactive | inactive | inactive | 11% | inactive | inactive | inactive | growth inhibition (GI) [13]: inactive; inhibition of growth at 10 µM ([15]; SNB-75, 24 h, read-out: GI): 27%; growth inhibition (GI) [17]: inactive; growth inhibition (GI) [19]: inactive; growth inhibition (GI) [24]: inactive; growth inhibition (GI) [26]: inactive; growth inhibition (GI) [27]: inactive; growth inhibition (GI) [28]: inactive; growth inhibition (GI) [29]: inactive; growth inhibition (GI) [30]: inactive; inhibition of growth at 10 µM [31]: 14%; growth inhibition (GI) [32]: inactive; growth inhibition (GI) [33]: inactive; growth inhibition (GI) [34]: inactive; inhibition of growth at 10 µM ([35]; MDA-MB-231, 24 h, read-out: GI): 11%; growth inhibition (GI) [36]: inactive; growth inhibition (GI) [37]: inactive; inhibition [38]: inactive
2 | COc1nc(OC)nc(-c2cc(C(=O)c3ccc(Br)cc3)n3ccc(C)cc23)n1 | inactive | inactive | inactive | inactive | inactive | inactive | inactive | inactive | inactive | inactive | inactive | inactive | inactive | inactive | inactive | inactive | 31% | inactive | inactive | inactive | inhibition of growth at 10 µM ([13]; SF-295, 24 h, read-out: GI): 20%; growth inhibition (GI) [15]: inactive; inhibition of growth at 10 µM ([17]; read-out: GI): 73%; inhibition of growth at 10 µM ([19]; SK-MEL-28, 24 h, read-out: GI): 30%; inhibition of growth at 10 µM ([24]; OVCAR-4, 24 h, read-out: GI): 95%; growth inhibition (GI) [26]: inactive; growth inhibition (GI) [27]: inactive; growth inhibition (GI) [28]: inactive; growth inhibition (GI) [29]: inactive; growth inhibition (GI) [30]: inactive; growth inhibition (GI) [32]: inactive; growth inhibition (GI) [33]: inactive; inhibition of growth at 10 µM ([34]; MCF7, 24 h, read-out: GI): 38%; growth inhibition (GI) [35]: inactive; growth inhibition (GI) [36]: inactive; growth inhibition (GI) [37]: inactive; inhibition [38]: inactive
